Results: patent US20020037559A1, “PROCESS FOR PRODUCING N-PROTECTED D-PROLINE DERIVATIVES” (priority 1996, published 2002)
Entries after “also recorded” stand apart in the source; their conditions may differ. Each block holds one compound with its values, some of them ahead of it.

Tests used:
N-acyl-L-proline acylase [1] = test: Inducers of N-acyl-L-proline acylase, resting cells tested against N-Z-L-proline and N-Z-D-proline; assay type: cell-based, Arthrobacter sp. HSZ5; details: for Induction of the enzymatic activity (N-acyl-L-proline acylase): 1 g/l added to minimal medium with fructose 5 g/l and L-glutamate 2 g/l, proline detected by HPLC
Procedure: Arthrobacter sp. HSZ5 was grown in minimal medium (Example 1) using fructose (5 g/l) as the C source and L-glutamate (2 g/l) as the N source.

[2] = test system: N-acyl-L-proline acylase of Arthrobacter sp. HSZ5; test: Effect of product inhibition on the activity of the N-acyl-L-proline acylase; assay type: cell-based; details: for Inhibition of the enzymatic activity of N-acyl-L-proline acylase: cells pre-incubated 30 minutes (30° C., pH 6.4) with product, then 30° C., pH 6.5, 50 g/l N-Z-L-proline; for Manner of inhibition: from dependence of inhibition on concentration
Procedure: Arthrobacter sp. HSZ5 was grown (30° C., 120 rpm) in the medium described in Table 1 using fructose (5 […]) as the C or N source. After reaching the desired cell density, the cells were harvested by centrifugation, washed in sodium chloride solution (0.9%) and finally also resuspended in the latter. […] As the 100% value, the result of the batch at pH=7.0 was employed. d) Effect of product inhibition on the activity of the N-acyl-L-proline acylase of Arthrobacter sp. HSZ5 cells having N-acyl-L-proline acylase activity were prepared as described under 9a). […] As the 100% value, the results of the batch was employed here which had been incubated without addition of one of the products.

Arthrobacter sp. HSZ5 [3] = test: Enzymatic hydrolysis of N-Z-DL-proline by resting cells; assay type: cell-based; details: after 60 minutes; N-Z-DL-proline 50 g/l, OD650=30, 30° C., pH 7.0, HPLC
Procedure: a) Arthrobacter sp. […] The cells were harvested and washed as described previously. The resting cells (OD650=30) were incubated at 30° C. with N-Z-DL-proline (50 g/l) under pH stasis (pH 7.0) and with stirring.

Arthrobacter sp. HSZ5 [4] = test: Growth using N-protected amino acids as the sole N source; assay type: cell-based; details: minimal medium, fructose 5 g/l as C source, N source 5 g/l, 30° C., 120 rpm
Procedure: (§1) Arthrobacter sp. HSZ5, Alcaligenes xylosoxidans ssp. denitrificans HSZ17, Agrobacterium/Rhizobium HSZ30, Bacillus simplex K2, Alcaligenes piechaudii K4 and Pseudomonas putida […] were grown (30° C., 120 rpm) in the medium described in Table 1 using fructose (5 g/l) as the C source. As the sole N source (5 g/l), in each case various N-protected amino acids were added. On reaching a cell density of OD650>0.5, the batch was assessed as positive.

[5] = test system: Agrobacterium/Rhizobium HSZ30; test: as above; assay type: cell-based; details: minimal medium, fructose 5 g/l as C source, N source 5 g/l, 30° C., 120 rpm
Procedure: as §1

Bacillus simplex K2 = test: as above; assay type: cell-based; details: minimal medium, fructose 5 g/l as C source, N source 5 g/l, 30° C., 120 rpm
Procedure: as §1

Pseudomonas putida K32 = test: as above; assay type: cell-based; details: minimal medium, fructose 5 g/l as C source, N source 5 g/l, 30° C., 120 rpm
Procedure: as §1

N-acyl-L-proline acylase [6] = test: Substrate specificity of N-acyl-L-proline acylase; assay type: biochemical, Arthrobacter sp. HSZ5
Excerpt: The enzymes according to the invention, the N-acyl-L-proline acylases, can be obtained, for example, by customary expert disruption of the described microorganism cells, preferably the enzymes are obtained from Arthrobacter sp. HSZ5 (DSM 10329). For this, for example, the ultrasound, French press or lysozyme method can be used. The enzymes are characterized by the following properties:
N-acyl-L-proline acylase, characterized by the following properties:

Arthrobacter sp. HSZ5 [7] = test: Biotransformation of N-Z-DL-proline in 450 l fermenter; assay type: cell-based; details: pH 7.5-8.5, 30° C.
Excerpt: d) Arthrobacter sp. […] The enzymatic activity was then induced by addition of 4 kg of 50% (w/w) N-Z-DL-proline solution. […] The cells were removed by ultracentrifugation from the 320 kg of culture finally obtained and an aliquot (1444 g) of the cell-free fermentation broth was worked up as described under 6a).

[8] = test system: Alcaligenes piechaudii K4; test: Growth using N-protected amino acids as the sole N source; assay type: cell-based; details: minimal medium, fructose 5 g/l as C source, N source 5 g/l, 30° C., 120 rpm
Procedure: as §1

[9] = test system: Alcaligenes xylosoxidans ssp. denitrificans HSZ17; test: as above; assay type: cell-based; details: minimal medium, fructose 5 g/l as C source, N source 5 g/l, 30° C., 120 rpm
Procedure: as §1

Compound: O=C(O)C1CCCN1C(=O)OCc1ccccc1 (racemic) [N-Z-DL-proline]
Induction of the enzymatic activity (N-acyl-L-proline acylase) (N-acyl-L-proline acylase [1]): induced the desired enzymatic activity

Compound: O=C(O)[C@@H]1CCCN1 [L-proline]
Inhibition of the enzymatic activity of N-acyl-L-proline acylase [2]: no inhibition of the enzymatic activity at all even in high concentration

Inhibition of the enzymatic activity of N-acyl-L-proline acylase ([2]; listed as N-benzyloxycarbonyl-D-proline): inhibitory action
Manner of inhibition [2]: competitive inhibitor
Compound: O=C(O)[C@H]1CCCN1C(=O)OCc1ccccc1 [N-Z-D-proline, N-benzyloxycarbonyl-D-proline]
Inhibition of the enzymatic activity of N-acyl-L-proline acylase [2]: drastic lowering of the enzyme activity with increasing concentration
Hydrolysis by resting cells (Arthrobacter sp. HSZ5 [3]): unchanged

Substrate specificity (hydrolysis by the enzyme) (N-acyl-L-proline acylase [6]): hydrolysed
Compound: C[C@H](NC(=O)OCc1ccccc1)C(=O)O [N-Z-L-alanine, N-benzyloxycarbonyl-L-alanine]
Growth using N-protected amino acid as the sole N source (Arthrobacter sp. HSZ5 [4]): + (On reaching a cell density of OD650>0.5, the batch was assessed as positive)
Growth using N-protected amino acid as the sole N source [5]: + (On reaching a cell density of OD650>0.5, the batch was assessed as positive)
Growth using N-protected amino acid as the sole N source (Bacillus simplex K2): + (On reaching a cell density of OD650>0.5, the batch was assessed as positive)
Growth using N-protected amino acid as the sole N source (Pseudomonas putida K32): + (On reaching a cell density of OD650>0.5, the batch was assessed as positive)

Compound: O=C(O)[C@@H]1CCCN1C(=O)OCc1ccccc1 [N-Z-L-proline, N-benzyloxycarbonyl-L-proline]
Hydrolysis by resting cells (Arthrobacter sp. HSZ5 [3]): almost completely hydrolysed
Induction of the enzymatic activity (N-acyl-L-proline acylase) (N-acyl-L-proline acylase [1]): induced the desired enzymatic activity
Acceptance as substrate by induced resting cells (N-acyl-L-proline acylase [1]; resting cells, tested against N-Z-L-proline and N-Z-D-proline): accepted as the substrate
Maximal rate of hydrolysis (Arthrobacter sp. HSZ5 [7]): about 12 g of N-Z-L-proline hydrolysed/l×h
Growth using N-protected amino acid as the sole N source (Arthrobacter sp. HSZ5 [4]): + (On reaching a cell density of OD650>0.5, the batch was assessed as positive)
Growth using N-protected amino acid as the sole N source [5]: + (On reaching a cell density of OD650>0.5, the batch was assessed as positive)
Growth using N-protected amino acid as the sole N source (Bacillus simplex K2): + (On reaching a cell density of OD650>0.5, the batch was assessed as positive)
Growth using N-protected amino acid as the sole N source (Pseudomonas putida K32): + (On reaching a cell density of OD650>0.5, the batch was assessed as positive)
Growth using N-protected amino acid as the sole N source [8]: + (On reaching a cell density of OD650>0.5, the batch was assessed as positive)
Growth using N-protected amino acid as the sole N source [9]: + (On reaching a cell density of OD650>0.5, the batch was assessed as positive)

Compound: O=C(O)[C@@H]1CCC(=O)N1C(=O)OCc1ccccc1 [N-Z-L-pyroglutamate, N-benzyloxycarbonyl-L-pyroglutamate]
Growth using N-protected amino acid as the sole N source (Arthrobacter sp. HSZ5 [4]): + (On reaching a cell density of OD650>0.5, the batch was assessed as positive)
Growth using N-protected amino acid as the sole N source [5]: + (On reaching a cell density of OD650>0.5, the batch was assessed as positive)
Growth using N-protected amino acid as the sole N source (Bacillus simplex K2): + (On reaching a cell density of OD650>0.5, the batch was assessed as positive)
Growth using N-protected amino acid as the sole N source (Pseudomonas putida K32): + (On reaching a cell density of OD650>0.5, the batch was assessed as positive)
Growth using N-protected amino acid as the sole N source [8]: + (On reaching a cell density of OD650>0.5, the batch was assessed as positive)
Growth using N-protected amino acid as the sole N source [9]: + (On reaching a cell density of OD650>0.5, the batch was assessed as positive)

Compound: O=C(N[C@@H](CO)C(=O)O)OCc1ccccc1 [N-Z-L-serine]
Growth using N-protected amino acid as the sole N source (Arthrobacter sp. HSZ5 [4]): + (On reaching a cell density of OD650>0.5, the batch was assessed as positive)
Growth using N-protected amino acid as the sole N source (Pseudomonas putida K32): + (On reaching a cell density of OD650>0.5, the batch was assessed as positive)

Compound: CN(CC(=O)O)C(=O)OCc1ccccc1 [N-Z-sarcosine]
Growth using N-protected amino acid as the sole N source (Arthrobacter sp. HSZ5 [4]): + (On reaching a cell density of OD650>0.5, the batch was assessed as positive)

Compound: CC(=O)N1CCC[C@H]1C(=O)O [N-acetyl-L-proline]
Growth using N-protected amino acid as the sole N source (Arthrobacter sp. HSZ5 [4]): + (On reaching a cell density of OD650>0.5, the batch was assessed as positive)
Growth using N-protected amino acid as the sole N source [5]: + (On reaching a cell density of OD650>0.5, the batch was assessed as positive)
Growth using N-protected amino acid as the sole N source (Pseudomonas putida K32): + (On reaching a cell density of OD650>0.5, the batch was assessed as positive)
Growth using N-protected amino acid as the sole N source [9]: + (On reaching a cell density of OD650>0.5, the batch was assessed as positive)

Compound: O=C(O)[C@@H]1CCCN1C(=O)c1ccccc1 [N-benzoyl-L-proline]
Growth using N-protected amino acid as the sole N source (Arthrobacter sp. HSZ5 [4]): + (On reaching a cell density of OD650>0.5, the batch was assessed as positive)
Growth using N-protected amino acid as the sole N source (Pseudomonas putida K32): + (On reaching a cell density of OD650>0.5, the batch was assessed as positive)

Compound: CC(C)COC(=O)N1CCC[C@H]1C(=O)O [N-isobutoxycarbonyl-L-proline]
Growth using N-protected amino acid as the sole N source (Arthrobacter sp. HSZ5 [4]): + (On reaching a cell density of OD650>0.5, the batch was assessed as positive)
Growth using N-protected amino acid as the sole N source (Pseudomonas putida K32): + (On reaching a cell density of OD650>0.5, the batch was assessed as positive)
Growth using N-protected amino acid as the sole N source [8]: + (On reaching a cell density of OD650>0.5, the batch was assessed as positive)

Compound: O=C(O)[C@@H]1CCCN1C(=O)Cc1ccccc1 [N-phenylacetyl-L-proline]
Growth using N-protected amino acid as the sole N source (Arthrobacter sp. HSZ5 [4]): + (On reaching a cell density of OD650>0.5, the batch was assessed as positive)
Growth using N-protected amino acid as the sole N source [8]: + (On reaching a cell density of OD650>0.5, the batch was assessed as positive)

Compound: O=C(O)CCC(=O)N1CCC[C@H]1C(=O)O [N-succinyl-L-proline]
Growth using N-protected amino acid as the sole N source (Pseudomonas putida K32): + (On reaching a cell density of OD650>0.5, the batch was assessed as positive)

Manner of inhibition [2]: non-competitive
Compound: OCc1ccccc1 [benzyl alcohol]
Inhibition of the enzymatic activity of N-acyl-L-proline acylase [2]: drastic lowering of the enzyme activity with increasing concentration; also recorded: inhibitory action
